For 31 molecules, Emax results are on record in patent US9359297B2, “Spirolactam derivatives and uses of same” (H. Lundbeck A/S, priority 2009, dated 2016).

T2 sequence (P41594 21-1212): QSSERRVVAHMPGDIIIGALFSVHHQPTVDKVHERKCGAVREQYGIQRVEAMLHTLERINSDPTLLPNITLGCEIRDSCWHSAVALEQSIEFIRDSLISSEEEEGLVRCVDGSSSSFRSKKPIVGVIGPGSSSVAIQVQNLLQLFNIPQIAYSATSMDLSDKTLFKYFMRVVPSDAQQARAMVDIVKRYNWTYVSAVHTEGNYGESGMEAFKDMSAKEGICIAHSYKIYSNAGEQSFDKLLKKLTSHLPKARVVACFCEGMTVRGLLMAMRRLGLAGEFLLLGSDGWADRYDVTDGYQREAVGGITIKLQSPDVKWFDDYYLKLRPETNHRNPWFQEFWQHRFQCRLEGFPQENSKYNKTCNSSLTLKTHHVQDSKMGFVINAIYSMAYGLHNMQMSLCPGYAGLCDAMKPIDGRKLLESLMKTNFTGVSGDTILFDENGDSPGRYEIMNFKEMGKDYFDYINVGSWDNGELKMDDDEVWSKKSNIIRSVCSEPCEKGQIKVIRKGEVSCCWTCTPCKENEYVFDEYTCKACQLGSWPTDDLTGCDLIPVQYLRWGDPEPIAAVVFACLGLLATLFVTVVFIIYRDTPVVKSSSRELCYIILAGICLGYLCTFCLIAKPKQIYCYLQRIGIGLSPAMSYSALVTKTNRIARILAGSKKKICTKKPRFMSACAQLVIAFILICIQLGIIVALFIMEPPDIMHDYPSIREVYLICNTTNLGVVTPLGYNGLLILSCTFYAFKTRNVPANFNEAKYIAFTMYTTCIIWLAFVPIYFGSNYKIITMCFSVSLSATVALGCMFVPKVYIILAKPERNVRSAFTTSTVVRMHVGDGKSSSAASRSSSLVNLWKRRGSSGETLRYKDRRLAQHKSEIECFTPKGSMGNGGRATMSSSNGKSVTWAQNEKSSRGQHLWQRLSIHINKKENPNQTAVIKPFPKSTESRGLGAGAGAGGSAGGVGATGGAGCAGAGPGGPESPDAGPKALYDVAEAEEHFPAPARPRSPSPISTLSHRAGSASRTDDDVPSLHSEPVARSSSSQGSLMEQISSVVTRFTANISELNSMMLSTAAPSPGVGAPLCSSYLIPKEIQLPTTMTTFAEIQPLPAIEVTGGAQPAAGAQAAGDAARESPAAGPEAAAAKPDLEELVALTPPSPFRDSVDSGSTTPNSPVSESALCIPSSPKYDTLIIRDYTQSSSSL

In the first experiment the target is T1, rat metabotropic glutamate receptor 5 (rmGluR5) (Rattus norvegicus, UniProt P31424).
T1 construct: expressed in transfected cells
T1 sequence (P31424 21-1203): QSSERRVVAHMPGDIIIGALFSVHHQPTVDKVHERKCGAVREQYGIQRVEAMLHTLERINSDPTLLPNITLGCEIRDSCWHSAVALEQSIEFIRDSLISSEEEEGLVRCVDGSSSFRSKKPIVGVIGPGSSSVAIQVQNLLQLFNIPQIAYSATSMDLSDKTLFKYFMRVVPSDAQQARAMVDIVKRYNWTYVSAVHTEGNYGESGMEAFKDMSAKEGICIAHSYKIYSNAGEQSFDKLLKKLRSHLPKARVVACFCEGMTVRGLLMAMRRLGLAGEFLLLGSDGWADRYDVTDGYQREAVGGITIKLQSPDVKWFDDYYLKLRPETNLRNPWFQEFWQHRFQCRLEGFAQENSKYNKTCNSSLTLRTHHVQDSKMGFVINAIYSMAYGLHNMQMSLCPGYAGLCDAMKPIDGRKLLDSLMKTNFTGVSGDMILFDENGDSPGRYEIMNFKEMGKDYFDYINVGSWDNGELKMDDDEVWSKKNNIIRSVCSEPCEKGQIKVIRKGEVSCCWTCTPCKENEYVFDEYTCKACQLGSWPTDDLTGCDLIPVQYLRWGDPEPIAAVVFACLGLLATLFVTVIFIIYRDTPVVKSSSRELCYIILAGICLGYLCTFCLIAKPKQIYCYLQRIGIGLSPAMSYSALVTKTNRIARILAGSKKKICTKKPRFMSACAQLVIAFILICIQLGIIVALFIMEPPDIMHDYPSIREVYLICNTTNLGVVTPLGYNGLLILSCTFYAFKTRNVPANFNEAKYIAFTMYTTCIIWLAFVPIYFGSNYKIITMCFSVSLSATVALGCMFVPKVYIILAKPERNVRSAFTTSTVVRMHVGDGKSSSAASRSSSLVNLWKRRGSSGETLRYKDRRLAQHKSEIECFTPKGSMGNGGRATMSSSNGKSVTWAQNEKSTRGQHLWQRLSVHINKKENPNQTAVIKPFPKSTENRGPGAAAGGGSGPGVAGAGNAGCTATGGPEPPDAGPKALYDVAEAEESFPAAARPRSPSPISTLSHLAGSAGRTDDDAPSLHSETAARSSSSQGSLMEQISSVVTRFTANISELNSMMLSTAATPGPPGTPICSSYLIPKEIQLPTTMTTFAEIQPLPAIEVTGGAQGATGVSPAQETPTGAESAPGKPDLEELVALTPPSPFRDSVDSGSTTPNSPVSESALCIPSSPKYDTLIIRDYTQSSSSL
Briefly: Calcium mobilization (FLIPR) assay for negative allosteric modulation, EC80 glutamate, rmGluR5 in HEK 293. The experiment is classed as cell-based. As to conditions: HEK293; rmGluR5, inhibition of EC80 glutamate response; read-out: FLIPR maximum inhibition. The protocol: The cDNA for rat metabotropic glutamate receptor 5 (rmGluR5) and the cDNA for human metabotropic glutamate receptor 5 (hmGluR5) were generous gifts from S. Nakanishi (Kyoto University, Kyoto, Japan). The rmGluR5 or hmGluR5 was stably expressed in a HEK 293 cell line and grown in Dulbecco's Modified Eagle Medium (DMEM) (Invitrogen, Carlsbad, Calif.) with supplements (10% bovine calf serum, 4 mM glutamine, 100 units/mL penicillin, 100 μg/mL streptomycin and 0.75 mM G1418) at 37° C., 5% CO2. Twenty-four hours prior to assay, cells were seeded into 384-well black wall microtiter plates coated with poly-D-lysine. Just prior to assay, media was aspirated and cells dye-loaded (25 μL/well) with 3 μM Fluo-4/0.01% pluronic acid in assay buffer (Hank's Balanced Saline Solution (HBSS)): 150 mM NaCl, 5 mM KCl, 1 mM CaCl2, 1 mM MgCl2, plus 20 mM N-2-Hydroxyethylpiperazine-N′-2-ethanesulfonic acid (HEPES), pH 7.4, 0.1% bovine serum albumin (BSA) and 2.5 mM probenicid) for 1 hour in 5% CO2 at 37° C. After excess dye was discarded, cells were washed in assay buffer and layered with a final volume equal to 30 μL/well. Basal fluorescence is monitored in a fluorometric imaging plate reader (FLIPR) (Molecular Devices, Sunnyvale, Calif.) with an excitation wavelength of 488 nm and an emission range of 500 to 560 nm. Laser excitation energy was adjusted so that basal fluorescence readings were approximately 10,000 relative fluorescent units. Cells were stimulated with an EC20 or an EC80 concentration of glutamate in the presence of a compound to be tested, both diluted in assay buffer, and relative fluorescent units were measured at defined intervals (exposure=0.6 sec) over a 3 min period at room temperature. Basal readings derived from negative controls were subtracted from all samples. Maximum change in fluorescence was calculated for each well. Concentration-response curves derived from the maximum change in fluorescence were analyzed by nonlinear regression (Hill equation). A negative modulator can be identified from these concentration-response curves if a compound produces a concentration dependent inhibition of the EC80 glutamate response.
(In general: Calcium assays in cells follow changes in intracellular calcium, usually with a dye or a luminescent sensor.)
Take `O=C(N[C@H]1CCC[C@]2(CCN(c3cccc(F)c3)C2=O)C1)c1ccccn1` (racemic) [Example 19, cis-Pyridine-2-carboxylic acid [2-(3-fluoro-phenyl)-1-oxo-2-aza-spiro[4.5]dec-7-yl]-amide]: the Emax is 81 to 99%.
On the same count and under the same terms, next, `Cc1cccc(N2CC[C@]3(CCC[C@H](NC(=O)c4cccc(F)c4)C3)C2=O)n1` (racemic) [Example 27, cis-3-Fluoro-N-[2-(6-methyl-pyridin-2-yl)-1-oxo-2-aza-spiro[4.5]dec-7-yl]-benzamide]: 81 to 99%; `Cc1cccc(C(=O)N[C@H]2CCC[C@]3(CCN(c4cccc(C(F)(F)F)n4)C3=O)C2)n1` (racemic) [Example 41, cis-6-Methyl-pyridine-2-carboxylic acid [1-oxo-2-(6-trifluoromethyl-pyridin-2-yl)-2-aza-spiro[4.5]dec-7-yl]-amide]: 81 to 99%.
Still for that read-out and setting: the same measure for `Cc1cccc(C(=O)N[C@H]2CCC[C@]3(CCN(c4cc(F)cc(F)c4)C3=O)C2)n1` (racemic) [Example 42, cis-6-Methyl-pyridine-2-carboxylic acid [2-(3,5-difluoro-phenyl)-1-oxo-2-aza-spiro[4.5]dec-7-yl]-amide]: 81 to 99%.
Turning to `Cc1cccc(C(=O)N[C@H]2CCC[C@]3(CCN(c4ccc(F)cc4)C3=O)C2)n1` (racemic) [Example 44, cis-6-Methyl-pyridine-2-carboxylic acid [2-(4-fluoro-phenyl)-1-oxo-2-aza-spiro[4.5]dec-7-yl]-amide], the Emax was in the range of 81 to 99%.
Same read-out and setting: next, `Cc1cccc(C(=O)N[C@H]2CCC[C@@]3(CCN(c4cccc(Cl)c4)C3=O)C2)n1` (relative stereo) [Example 3, trans-6-Methyl-pyridine-2-carboxylic acid [2-(3-chloro-phenyl)-1-oxo-2-aza-spiro [4.5]dec-7-yl]-amide]: 81 to 99%.

A further experiment has as its target T2, human metabotropic glutamate receptor 5 (hmGluR5) (Homo sapiens, UniProt P41594).
T2 construct: expressed in transfected cells
Briefly: Calcium mobilization (FLIPR) assay for negative allosteric modulation, EC80 glutamate, hmGluR5 in HEK 293. Conditions: HEK293; hmGluR5, inhibition of EC80 glutamate response; read-out: FLIPR maximum inhibition. The experiment is classed as cell-based. In short, it runs like this:
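Stably transfected HEK 293 cells, Fluo-4-loaded, stimulated with EC80 glutamate plus test compound in HBSS/20 mM HEPES pH 7.4 with probenecid; FLIPR fluorescence read over 3 min at room temperature. Basal-subtracted maximum fluorescence change fitted by Hill equation; negative modulation seen as concentration-dependent inhibition of the EC80 response.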
For the molecule `O=C(N[C@@H]1CC(F)(F)C[C@@]2(CCN(c3cccc(F)c3)C2=O)C1)c1ccccn1` (single isomer, unassigned) [Example 98], the Emax fell in the range of 88 to 93%.
The same measure, in the same setting: the same measure for `O=C(N[C@H]1CC(F)(F)C[C@]2(CCN(c3cccc(F)c3)C2=O)C1)c1ccccn1` (single isomer, unassigned) [Example 99]: 88 to 93%; for `O=C1c2ccccc2CN1C1CCCC2(CCN(c3cccc(Cl)c3)C2=O)C1` (single isomer, unassigned) [Example 100, cis-2-[2-(3-chloro-phenyl)-1-oxo-2-aza-spiro[4.5]dec-7-yl]-2,3-dihydro-isoindol-1-one]: 47 to 93%; for `O=C(N[C@H]1CC(F)(F)C[C@@]2(CCN(c3cccc(F)c3)C2=O)C1)c1ccccn1` (single isomer, unassigned) [Example 101]: 47 to 93%.
On the same count and under the same terms, next, `O=C(N[C@@H]1CC(F)(F)C[C@]2(CCN(c3cccc(F)c3)C2=O)C1)c1ccccn1` (single isomer, unassigned) [Example 102]: 47 to 93%; `Cc1nccc(C(=O)N[C@H]2CC(F)(F)C[C@]3(CCN(c4cccc(F)c4)C3=O)C2)n1` (single isomer, unassigned) [Example 103]: 47 to 93%.
In the case of `Cc1nccc(C(=O)N[C@@H]2CC(F)(F)C[C@@]3(CCN(c4cccc(F)c4)C3=O)C2)n1` (single isomer, unassigned) [Example 104], the Emax was in the range of 47 to 93%.
Same read-out and setting: the same measure for `O=C(N[C@H]1CC(F)(F)C[C@]2(CCN(c3cc(F)cc(F)c3)C2=O)C1)c1ccccn1` (single isomer, unassigned) [Example 113]: 47 to 93%.
With `O=C(N[C@@H]1CC(F)(F)C[C@@]2(CCN(c3cc(F)cc(F)c3)C2=O)C1)c1ccccn1` (single isomer, unassigned) [Example 114], the Emax lay in the range of 47 to 93%.
Same read-out and setting: the same measure for `Cc1nccc(C(=O)N[C@@H]2C[C@@](C)(O)C[C@@]3(CCN(c4cc(F)cc(F)c4)C3=O)C2)n1` (single isomer, unassigned) [Example 118, trans-2-Methyl-pyrimidine-4-carboxylic acid [2-(3,5-difluoro-phenyl)-9-hydroxy-9-methyl-1-oxo-2-aza-spiro[4.5]dec-7-yl]-amide]: 47 to 93%; for `Cc1nccc(C(=O)N[C@@H]2C[C@](C)(O)C[C@@]3(CCN(c4cc(F)cc(F)c4)C3=O)C2)n1` (single isomer, unassigned) [Example 119, cis-2-Methyl-pyrimidine-4-carboxylic acid [2-(3,5-difluoro-phenyl)-9-hydroxy-9-methyl-1-oxo-2-aza-spiro[4.5]dec-7-yl]-amide]: 47 to 93%.
The same measure, in the same setting: next, `Cc1nccc(N2CC[C@@]3(C[C@@H](NC(=O)c4cccc(F)c4)CC(F)(F)C3)C2=O)n1` (single isomer, unassigned) [Example 120]: 47 to 93%; `Cc1nccc(N2CC[C@]3(C[C@H](NC(=O)c4cccc(F)c4)CC(F)(F)C3)C2=O)n1` (single isomer, unassigned) [Example 121]: 47 to 93%.
As to `Cc1cccc(C(=O)N[C@H]2CC(F)(F)C[C@]3(CCN(c4ccc(F)cn4)C3=O)C2)n1` (single isomer, unassigned) [Example 127], the Emax was in the range of 47 to 93%.
Same read-out and setting: the same measure for `Cc1cccc(C(=O)N[C@@H]2CCC[C@@]3(CCN(c4ccc(F)cn4)C3=O)C2)n1` [Example 73, 6-Methyl-pyridine-2-carboxylic acid [(5R,7R)-2-(5-fluoro-pyridin-2-yl)-1-oxo-2-aza-spiro[4.5]dec-7-yl]-amide]: 73 to 95%; for `Cc1cccc(C(=O)N[C@@H]2CCC[C@@]3(CCN(c4ccc(F)cc4)C3=O)C2)n1` [Example 80, 6-Methyl-pyridine-2-carboxylic acid [(5R,7R)-2-(4-fluoro-phenyl)-1-oxo-2-aza-spiro[4.5]dec-7-yl]-amide]: 73 to 95%.
On the same count and under the same terms, the same measure for `Cc1cc(C(=O)N[C@@H]2CCC[C@@]3(CCN(c4cccc(F)c4)C3=O)C2)ccn1` [Example 95, N-[(5R,7R)-2-(3-Fluoro-phenyl)-1-oxo-2-aza-spiro[4.5]dec-7-yl]-2-methyl-isonicotinamide]: 73 to 95%.
On to `CN(C)c1cccc(N2CC[C@]3(CCC[C@H](NC(=O)c4cccc(F)c4)C3)C2=O)c1` [Example 132, Cis-N-[(5S,7S)-2-(3-Dimethylamino-phenyl)-1-oxo-2-aza-spiro[4.5]dec-7-yl]-3-fluoro-benzamide], for which the Emax lay in the range of 47 to 93%.
Same read-out and setting: next, `Cc1nccc(N2CC[C@@]3(CCC[C@@H](NC(=O)c4cccc(Cl)c4)C3)C2=O)n1` [Example 148, 3-Chloro-N-[(5R,7R)-2-(2-methyl-pyrimidin-4-yl)-1-oxo-2-aza-spiro[4.5]dec-7-yl]-benzamide]: 47 to 93%.
In the case of `Cc1cccc(C(=O)N[C@@H]2CCC[C@@]3(CCN(c4ccnc(C)n4)C3=O)C2)c1` [Example 152, 3-Methyl-N-[(5R,7R)-2-(2-methyl-pyrimidin-4-yl)-1-oxo-2-aza-spiro[4.5]dec-7-yl]-benzamide], the Emax is 47 to 93%.
Still for that read-out and setting: the same measure for `Cc1cccc(C(=O)N[C@@H]2CCC[C@@]3(CCN(c4ccnc(C(F)(F)F)n4)C3=O)C2)n1` [Example 156, 6-Methyl-pyridine-2-carboxylic acid[(5R,7R)-1-oxo-2-(2-trifluoromethyl-pyrimidin-4-yl)-2-aza-spiro[4.5]dec-7-yl]-amide]: 47 to 93%; for `CN1CCC(N2CCC3(CCCC(NC(=O)c4cccc(F)c4)C3)C2=O)CC1` (stereo not shown) [Example 157, 3-Fluoro-N-[2-(1-methyl-piperidin-4-yl)-1-oxo-2-aza-spiro[4.5]dec-7-yl]-benzamide]: 47 to 93%; for `Cn1ccc(N2CCC3(CCCC(NC(=O)c4cccc(F)c4)C3)C2=O)n1` (stereo not shown) [Example 158, 3-Fluoro-N-[2-(1-methyl-1H-pyrazol-3-yl)-1-oxo-2-aza-spiro[4.5]dec-7-yl]-benzamide]: 47 to 93%.
On the same count and under the same terms, the same measure for `Cc1nc(C(=O)N[C@@H]2CCC[C@@]3(CCN(c4cc(F)cc(F)c4)C3=O)C2)cc(=O)[nH]1` [Example 159, 2-Methyl-6-oxo-1,6-dihydro-pyrimidine-4-carboxylic acid [(5R,7R)-2-(3,5-difluoro-phenyl)-1-oxo-2-aza-spiro[4.5]dec-7-yl]amide]: 47 to 93%.
Same read-out and setting: next, `CC1(F)CC(NC(=O)c2ccccn2)CC2(CCN(c3cccc(F)c3)C2=O)C1` (stereo not shown) [Example 160, Pyridine-2-carboxylic acid [9-fluoro-2-(3-fluoro-phenyl)-9-methyl-1-oxo-2-aza-spiro[4.5]dec-7-yl]-amide]: 47 to 93%.
